# Test system: Candida albicans
# Test: Therapeutic efficacy in C. albicans infected mice
# Type: in vivo
# Details: single dose 3 days post infection; for 29 SURVIVORS (%) / surviving mice at day 29 post infection: n = 8 per group
# Protocol: 360.1 mg of the spray dried powder were hydrated at 65 degrees Centigrade for 40 minutes with 9% lactose containing 10 mM succinate buffer, pH 5.62. Liposomes were prepared by sonication for four minutes with a ½ probe at 65° C. under a nitrogen atmosphere. Three successive batches of liposomes were prepared in a similar fashion. After sterile filtration, the Amphotericin B concentration was determined to be 1.73 mg/ml.
# For therapeutic efficacy studies, groups of 8 mice were given intravenous inoculations of 3.5×10^5 Candida albicans yeast cells. Three days post-infection, animals were treated with a single dose of either free Amphotericin B or liposomal Amphotericin B. A severe systemic infection existed in animals which were not treated until three days post infection. Each successive group was treated with an increasing dose of medicament in order to establish a dose response relationship. Twenty-nine days after infection the study was evaluated for surviving animals. All untreated control animals had died by 8 days post-infection, with a median survival of 7 days. […] In contrast, all animals treated with 10 or 15 mg/kg of liposomal Amphotericin B were still alive […] post infection.
smiles,measurement,setting,value
"C[C@@H]1[C@H](O)[C@@H](C)/C=C/C=C/C=C/C=C/C=C/C=C/C=C/[C@H](O[C@@H]2O[C@H](C)[C@@H](O)[C@H](N)[C@@H]2O)C[C@@H]2O[C@](O)(C[C@@H](O)C[C@@H](O)[C@H](O)CC[C@@H](O)C[C@@H](O)CC(=O)O[C@H]1C)C[C@H](O)[C@H]2C(=O)O [FREE AM B, Amphotericin B]",29 SURVIVORS (%),AMB dose 0.5 mg/kg,(0%)
same,surviving mice at day 29 post infection,AMB dose 0.5 mg/kg,0
same,29 SURVIVORS (%),AMB dose 1.0 mg/kg,(0%)
same,surviving mice at day 29 post infection,AMB dose 1.0 mg/kg,0
same,29 SURVIVORS (%),AMB dose 1.5 mg/kg,(0%)
same,surviving mice at day 29 post infection,AMB dose 1.5 mg/kg,0
same,survivors at 29 days post infection,any dose level,no dose level of free Amphotericin B which produced any survivors

# From patent US6770290B1, “Amphotericin B liposome preparation” (priority 1987, dated 2004)
